Laboratory results reported in PubChem BioAssay AID248 (DTP/NCI, 2004).
Several values for one entry are separate records, joined by “and”; a condition that tells them apart may be missing. Identical values can stand only once. Inconclusive results and toxic doses are left out. Cut-off read from the data, not from the text of the source: active = T/C of 150% or more; inactive = T/C below 125%.

System: L1210 leukemia ip in BDF1 mice, survival T/C
Assay: NCI In Vivo Anticancer Drug Screen. Data for tumor model L1210 Leukemia (intraperitoneal) in B6D2F1 (BDF1) mice
Settings: endpoint: mean survival time, higher = longer survival
Outline: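 Ratio derived from survival: compound-dosed mice over vehicle-dosed mice, all bearing a transplantable tumor.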

[1] = dose: 100.0 mg/kg/injection, schedule: Q01DX009 (ip), vehicle: Klucel (hydroxypropylcellulose) (HPC)
[2] = dose: 200.0 mg/kg/injection, schedule: Q01DX009 (ip), vehicle: Klucel (hydroxypropylcellulose) (HPC)
[3] = dose: 400.0 mg/kg/injection, schedule: Q01DX009 (ip), vehicle: Klucel (hydroxypropylcellulose) (HPC)
[4] = dose: 100.0 mg/kg/injection, schedule: Q04DX003 (ip), vehicle: Klucel (hydroxypropylcellulose) (HPC)
[5] = dose: 200.0 mg/kg/injection, schedule: Q04DX003 (ip), vehicle: Klucel (hydroxypropylcellulose) (HPC)
[6] = dose: 400.0 mg/kg/injection, schedule: Q04DX003 (ip), vehicle: Klucel (hydroxypropylcellulose) (HPC)
[7] = dose: 100.0 mg/kg/injection, schedule: Q04DX003 (ip), vehicle: saline
[8] = dose: 200.0 mg/kg/injection, schedule: Q04DX003 (ip), vehicle: saline
[9] = dose: 400.0 mg/kg/injection, schedule: Q04DX003 (ip), vehicle: saline
[10] = dose: 100.0 mg/kg/injection, schedule: Q04DX003 (ip), vehicle: saline with Tween-80
[11] = dose: 200.0 mg/kg/injection, schedule: Q04DX003 (ip), vehicle: saline with Tween-80
[12] = dose: 400.0 mg/kg/injection, schedule: Q04DX003 (ip), vehicle: saline with Tween-80
[13] = dose: 25.0 mg/kg/injection, schedule: Q04DX003 (ip), vehicle: saline with Tween-80
[14] = dose: 50.0 mg/kg/injection, schedule: Q04DX003 (ip), vehicle: saline with Tween-80
[15] = dose: 50.0 mg/kg/injection, schedule: Q01DX009 (ip), vehicle: saline with Tween-80
[16] = dose: 100.0 mg/kg/injection, schedule: Q01DX009 (ip), vehicle: saline with Tween-80
[17] = dose: 200.0 mg/kg/injection, schedule: Q01DX009 (ip), vehicle: saline with Tween-80

Measured: T/C

C1CCC(N(CCN(C2CCCCC2)C2CCCCC2)C2CCCCC2)CC1
inactive: dose: 25.0 mg/kg/injection, schedule: Q04DX013 (ip), vehicle: carboxymethylcellulose (CMC) 100 % of control | dose: 50.0 mg/kg/injection, schedule: Q04DX013 (ip), vehicle: carboxymethylcellulose (CMC) 94 % of control | dose: 100.0 mg/kg/injection, schedule: Q04DX013 (ip), vehicle: carboxymethylcellulose (CMC) 96 % of control

CCOC(=O)CNC(=O)CBr
inactive: dose: 10.0 mg/kg/injection, schedule: Q01DX Z (ip), vehicle: other 103 % of control | dose: 20.0 mg/kg/injection, schedule: Q01DX Z (ip), vehicle: other 91 % of control

CCS(=O)(=O)c1ccc(NC(=O)OC2CCC3(C)C(=CCC4C3CCC3(C)C(C(C)CCCC(C)C)CCC43)C2)cc1 (stereo not drawn)
inactive: dose: 100.0 mg/kg/injection, schedule: Q01DX001 (sc), vehicle: steriod suspending solution 97 % of control | dose: 200.0 mg/kg/injection, schedule: Q01DX001 (sc), vehicle: steriod suspending solution 100 % of control | dose: 400.0 mg/kg/injection, schedule: Q01DX001 (sc), vehicle: steriod suspending solution 94 % of control

O=c1c2ccccc2[nH]c(=S)n1-c1cccc(C(F)(F)F)c1
inactive: [1] 100 % of control | [2] 97 % of control | [3] 96 % of control

CCCCOC(OCCCC)C(C)=O
inactive: [1] 96 % of control | [4] 113 % of control | [2] 96 % of control | [5] 92 % of control | [3] 101 % of control | [6] 102 % of control

CCC[CH2][Sn]([Cl])([CH2]CCC)[CH2]CCC
inactive: dose: 2.0 mg/kg/injection, schedule: Q01DX009 (ip), vehicle: saline 94 % of control | dose: 2.0 mg/kg/injection, schedule: Q04DX003 (ip), vehicle: saline 103 % of control | dose: 4.0 mg/kg/injection, schedule: Q01DX009 (ip), vehicle: saline 90 % of control | dose: 4.0 mg/kg/injection, schedule: Q04DX003 (ip), vehicle: saline 100 % of control | dose: 8.0 mg/kg/injection, schedule: Q01DX009 (ip), vehicle: saline 98 % of control | dose: 8.0 mg/kg/injection, schedule: Q04DX003 (ip), vehicle: saline 97 % of control

COc1ccc2c(c1)c(=O)c(C(=O)O)cn2CCCOc1ccc([N+](=O)[O-])cc1
inactive: [1] 96 % of control | [7] 107 % of control | [2] 106 % of control | [8] 100 % of control | [3] 93 % of control | [9] 94 % of control

Nc1c(Cl)ncnc1Nc1cccc(C(F)(F)F)c1
inactive: [4] 92 % of control | [5] 97 % of control | [6] 104 % of control

NC(=S)NCCO
inactive: [7] 105 % of control | [8] 98 % of control | [9] 100 % of control

S=c1nc[nH]c2c1CP(c1ccccc1)CC2 (stereo not drawn)
inactive: [10] 110 % of control | [11] 100 % of control | [12] 101 % of control

C=C(Br)CNC(=O)OC
inactive: [13] 100 % of control | [14] 105 % of control | [10] 121 % of control

OC1(c2cccc3ccccc23)CCCCC1
inactive: [15] 100 % of control | [16] 94 % of control | [10] 94 % of control | [17] 103 % of control | [11] 91 % of control

COc1cc(C)c(O)c(C)c1C
inactive: [10] 95 % of control | [11] 95 % of control | [12] 95 % of control

CCOC(=O)CCC(=O)OCC
inactive: dose: 100.0 mg/kg/injection, schedule: Q01DX001 (ip), vehicle: saline 95 % of control | dose: 200.0 mg/kg/injection, schedule: Q01DX001 (ip), vehicle: saline 95 % of control | dose: 400.0 mg/kg/injection, schedule: Q01DX001 (ip), vehicle: saline 93 % of control

Cc1c2oc3c(C)c(N)cc(C(=O)NC4C(=O)NC(C(C)C)C(=O)N5CCCC5C(=O)N(C)CC(=O)N(C)C(C(C)C)C(=O)OC4C)c3nc-2c(C(=O)NC2C(=O)NC(C(C)C)C(=O)N3CCCC3C(=O)N(C)CC(=O)N(C)C(C(C)C)C(=O)OC2C)c(N)c1=O (stereo not drawn)
inactive: dose: 75.0 micrograms/kg/injection, schedule: Q01DX009 (ip), vehicle: saline + alcohol 121 % of control | dose: 150.0 micrograms/kg/injection, schedule: Q01DX009 (ip), vehicle: saline + alcohol 113 % of control | dose: 200.0 micrograms/kg/injection, schedule: Q01DX009 (ip), vehicle: saline + alcohol 102 % of control | dose: 300.0 micrograms/kg/injection, schedule: Q01DX009 (ip), vehicle: saline + alcohol 90 % of control | dose: 300.0 micrograms/kg/injection, schedule: Q04DX003 (ip), vehicle: saline + alcohol 119 % of control | dose: 800.0 micrograms/kg/injection, schedule: Q04DX003 (ip), vehicle: saline + alcohol 106 % of control | dose: 1200.0 micrograms/kg/injection, schedule: Q04DX003 (ip), vehicle: saline + alcohol 87 % of control

O=C(Nc1cccc(F)c1)Nc1cc(C(F)(F)F)ccc1Cl
inactive: [15] 96 % of control | [16] 95 % of control and 97 % of control | [17] 96 % of control | dose: 400.0 mg/kg/injection, schedule: Q01DX009 (ip), vehicle: saline with Tween-80 88 % of control

O/N=C(\CC(O)(C(F)(F)F)C(F)(F)F)c1cccs1
inactive: [14] 98 % of control | [10] 98 % of control | [11] 98 % of control | [12] 95 % of control

CCCC[n+]1cccc(C(=O)c2ccccc2)c1
inactive: dose: 75.0 mg/kg/injection, schedule: Q01DX001 (ip), vehicle: saline 101 % of control

COC1=C(Br)C(=O)C(OC)=C(Br)C1=O
inactive: [13] 95 % of control | [14] 92 % of control | [10] 91 % of control

CC(=O)Nc1ccc(SC(=O)c2ccc(C(Cl)(Cl)Cl)cc2)cc1
inactive: [10] 101 % of control | [11] 98 % of control | [12] 93 % of control

O=C1c2ccccc2C(=O)N1N1C(=O)C2C3CCC(O3)C2C1=O (stereo not drawn)
inactive: dose: 100.0 mg/kg/injection, schedule: Q01DX001 (ip), vehicle: saline with Tween-80 97 % of control and 91 % of control | dose: 100.0 mg/kg/injection, schedule: Q04DX002 (ip), vehicle: saline with Tween-80 101 % of control and 106 % of control | [10] 93 % of control and 95 % of control | dose: 200.0 mg/kg/injection, schedule: Q01DX001 (ip), vehicle: saline with Tween-80 94 % of control and 90 % of control | dose: 200.0 mg/kg/injection, schedule: Q04DX002 (ip), vehicle: saline with Tween-80 105 % of control | [11] 95 % of control and 100 % of control | dose: 400.0 mg/kg/injection, schedule: Q01DX001 (ip), vehicle: saline with Tween-80 96 % of control and 97 % of control | dose: 400.0 mg/kg/injection, schedule: Q04DX002 (ip), vehicle: saline with Tween-80 94 % of control and 101 % of control | [12] 95 % of control and 100 % of control

CC1CN=C(c2cccc(NC(=O)c3ccc(C(=O)Nc4cccc(C5=NCC(C)N5)c4)c(N)c3)c2)N1 (stereo not drawn)
inactive: dose: 1.25 mg/kg/injection, schedule: Q01DX Z (ip), vehicle: water 91 % of control | dose: 2.5 mg/kg/injection, schedule: Q01DX Z (ip), vehicle: water 89 % of control

C/C=C/CC/C(=N\Nc1ccc([N+](=O)[O-])cc1[N+](=O)[O-])c1ccccc1
inactive: dose: 100.0 mg/kg/injection, schedule: Q01DX001 (ip), vehicle: Klucel (hydroxypropylcellulose) (HPC) 96 % of control | dose: 200.0 mg/kg/injection, schedule: Q01DX001 (ip), vehicle: Klucel (hydroxypropylcellulose) (HPC) 96 % of control | dose: 400.0 mg/kg/injection, schedule: Q01DX001 (ip), vehicle: Klucel (hydroxypropylcellulose) (HPC) 100 % of control
